The test system of assay [1] is Nmb-induced mechanical hypersensitivity in mice. Briefly: Nmb-induced mechanical hypersensitivity, effect of pretreatment (Figure 7C). The assay is classed as in vivo, mouse. Conditions: intra-TG TTA-P2 1 nmol prior to 1 nmol Nmb; 1 h; n = 8 - 10. The procedure: Mice were housed on a 12 h light/dark cycle, maintained in a humidity- and temperature-controlled room with water available ad libitum and were acclimated to the experimenter for 2 d before the first behavioural observations. Experimenters were blinded to the treatment or genotypes of the mice. As described previously, [31], an Orofacial Stimulation Test (Ugo Basile, Italy) was used for the measurement of hypersensitivity to the mechanical stimulation of the trigeminal area. Briefly, the mice initially underwent one week of adaptation trainings after a 12 h fasting food period. Each mouse was then placed in a cage in which there was an Orofacial Stimulation Test system. […] The contact number and total duration of time the mouse spent acquiring the reward were analyzed with the ORO software.
For experiments that several time points are needed to be checked in 24 h, von Frey test was used, as orofacial stimulation test can be checked only once a day, [32]. […] Mechanical hypersensitivity was assessed as described in previous studies, [33]. In brief, the threshold was assessed with a set of von Frey hairs (0.02-2.56 g, Stoelting) applied to the whisker pad in an ascending series of trials, with three separate von Frey stimulations applied per series. The threshold was determined when mice moved their heads away briskly and strongly from at least one of the three stimuli. […]

In assay [2] the test system is CFA-induced mechanical allodynia in mice. Briefly: CFA-induced inflammatory pain, mechanical allodynia. The assay is classed as in vivo, mouse. Conditions: rofecoxib 10 mg/kg (legend: 1 mg/kg, subcutaneous); 1 h; 2 d after CFA; n = 7 - 9. Here is the method: For experiments that several time points are needed to be checked in 24 h, von Frey test was used, as orofacial stimulation test can be checked only once a day, [32]. For the von Frey test, the mice were placed in metal mesh boxes and allowed 30 min for habituation before examination. Mechanical hypersensitivity was assessed as described in previous studies, [33]. In brief, the threshold was assessed with a set of von Frey hairs (0.02-2.56 g, Stoelting) applied to the whisker pad in an ascending series of trials, with three separate von Frey stimulations applied per series. The threshold was determined when mice moved their heads away briskly and strongly from at least one of the three stimuli. Dixon's up-down method was used to determine the 50% probability of escape threshold. For thermal test, a heat stimulus was applied to the maxillary whisker pad skin by radiant heat (IITC Life Science). Heat sensitivity was expressed as head-withdrawal latency (HWL). The radiant heat intensity was adjusted so that basal HWL is between 10-15 s, with a cut-off of 18 s to prevent tissue damage. Chronic inflammatory pain was induced by subcutaneous injection of 20 μL of complete Freund's adjuvant (CFA) into the left side of the buccal pad. […]

The target in assay [3] is Human neuromedin B receptor expressed in HEK293 cells (human) (UniProt P28336).

Entries after “also recorded” stand apart in the source; their conditions may differ.

Human neuromedin B receptor expressed in HEK293 cells (human), sequence (P28336 whole entry): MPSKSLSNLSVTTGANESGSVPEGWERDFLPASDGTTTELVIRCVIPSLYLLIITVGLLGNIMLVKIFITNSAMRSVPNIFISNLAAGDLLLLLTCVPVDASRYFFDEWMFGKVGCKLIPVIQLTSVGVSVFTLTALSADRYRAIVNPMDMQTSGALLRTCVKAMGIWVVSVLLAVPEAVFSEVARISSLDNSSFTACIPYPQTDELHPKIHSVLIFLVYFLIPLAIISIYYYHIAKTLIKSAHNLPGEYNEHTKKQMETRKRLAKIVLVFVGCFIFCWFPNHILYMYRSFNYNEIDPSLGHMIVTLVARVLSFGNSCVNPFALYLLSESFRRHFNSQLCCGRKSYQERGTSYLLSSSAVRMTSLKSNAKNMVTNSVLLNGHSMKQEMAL

With `CC1(C)C[C@@H](CN2CCC(F)(CNC(=O)c3cc(Cl)cc(Cl)c3)CC2)CCO1` [TTA-P2], the “effect on Nmb-induced mechanical hypersensitivity” value in assay [1] is reported as “significantly attenuated mechanical hypersensitivity”.
Consider `CS(=O)(=O)c1ccc(C2=C(c3ccccc3)C(=O)OC2)cc1` [rofecoxib], for which the CFA-induced mechanical allodynia result in assay [2] is recorded as “reversed; also recorded: reduced the mechanical allodynia”.
With Neuromedin B (peptide), the increase of Cav3.2 channel currents in HEK293 cells co-expressing human NmbR and Cav3.2, whole-cell patch clamp, dose-response of Nmb, EC50 in assay [3] was determined as 47.6 nM.

(Values after PMC8490515, “Neuromedin B receptor stimulation of Cav3.2 T-type Ca^2+ channels in primary sensory neurons mediates peripheral pain hypersensitivity” (Theranostics, 2021).)
